# Values quoted from earlier work in US5763196A, “Assays using cross-linked polypeptide fragments of β-galactosidase” (priority 1996, dated 1998).
# System: interleukin-1-β converting enzyme (ICE protease)
Compound,inhibition of ICE protease (in words) (Nature 375:78-81 (1995)),"minimal and best peptide substrate found to date (Thornberry, Nature 356:768-74 (1992))"
CC(=O)N[C@@H](Cc1ccc(O)cc1)C(=O)N[C@H](C(=O)N[C@@H](C)C(=O)N[C@@H](CC(=O)O)C(=O)CCl)C(C)C [Ac-Tyr-Val-Ala-Asp-*],potent inhibitor,–
CNC(=O)[C@H](CC(=O)O)NC(=O)[C@H](C)NC(=O)[C@@H](NC(=O)[C@H](Cc1ccc(O)cc1)NC(C)=O)C(C)C [Ac-Tyr-Val-Ala-Asp-NH-CH3],–,minimal and best peptide substrate
